Results on three molecules are retold here after US20030124159A1, “Enhancing epidermal barrier development in skin” (Unilever Home & Personal Care USA, Division of Conopco, Inc, priority 2001, published 2003).

One assay deals with T1, human LXR (Homo sapiens, UniProt Q13133).
T1 construct: expressed in transfected cells; host or cells: cos-7 cells (ECACC No. 87021302)
T1 sequence (Q13133 1-447): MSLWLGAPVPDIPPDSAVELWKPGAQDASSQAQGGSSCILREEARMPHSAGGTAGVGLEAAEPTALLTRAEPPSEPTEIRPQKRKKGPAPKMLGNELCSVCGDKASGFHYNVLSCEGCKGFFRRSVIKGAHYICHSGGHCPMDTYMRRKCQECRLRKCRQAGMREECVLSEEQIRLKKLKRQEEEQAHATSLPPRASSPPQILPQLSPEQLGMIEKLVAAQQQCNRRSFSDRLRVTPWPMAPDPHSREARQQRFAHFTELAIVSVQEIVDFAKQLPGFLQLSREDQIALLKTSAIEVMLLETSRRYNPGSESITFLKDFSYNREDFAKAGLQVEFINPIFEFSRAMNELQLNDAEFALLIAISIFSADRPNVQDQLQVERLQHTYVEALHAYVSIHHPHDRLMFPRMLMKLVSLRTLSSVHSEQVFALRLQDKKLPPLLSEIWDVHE
T1 sequence (P19793 1-462 partner): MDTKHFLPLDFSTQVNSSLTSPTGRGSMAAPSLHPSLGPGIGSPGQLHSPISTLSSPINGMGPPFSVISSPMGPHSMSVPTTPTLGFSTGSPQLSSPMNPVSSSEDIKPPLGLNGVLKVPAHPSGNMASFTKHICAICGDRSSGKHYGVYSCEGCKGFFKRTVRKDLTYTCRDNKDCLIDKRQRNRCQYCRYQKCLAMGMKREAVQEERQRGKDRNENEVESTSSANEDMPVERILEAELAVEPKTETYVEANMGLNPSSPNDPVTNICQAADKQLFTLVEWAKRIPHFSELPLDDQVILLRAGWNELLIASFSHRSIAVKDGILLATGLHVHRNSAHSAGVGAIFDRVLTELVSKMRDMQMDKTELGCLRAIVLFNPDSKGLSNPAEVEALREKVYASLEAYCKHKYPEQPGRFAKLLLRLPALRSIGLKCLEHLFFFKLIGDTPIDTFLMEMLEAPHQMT
The experiment in a line: Reporter gene assay for activation of LXRα in transfected cos-7 cells. The class given is cell-based. On the procedure:
The activation of LXRα has been determined by a reporter gene assay based on that described by Kliewer et al (Nature 358 771-774 1992). Wherein cos-7 cells (ECACC No. 87021302) were seeded in 24-well plates at a density of 5×10^4 cells/well. Cells were grown overnight at 37° C./5% CO2 in DMEM containing 10% FCS, 2mM L-glutamine, […] penicillin and 100 µg/ml streptomycin.
A commerically available vector-pNFκB-Luc (Clontech) was used as the basic reporter plasmid as it contained the firefly luciferase gene downstream of the thymidine kinase promoter element. The NFκB consensus sequence was exised using restriction enzymes Mlu I and Bgl II and replaced with 3 direct repeats of the DNA response element sequence for the LXR nuclear receptor.
The response element was taken from Willy, P. et al (1995)(from a promoter region of the mouse mammary tumour virus), and repeated three times and encorporated restriction enzyme sites for Mlu I and Bgl II at either end to orientate the fragment during cloning (FIG. 5). This long oligonucleotide was synthesised, and an annealing primer designed to allow production of a double-stranded DNA template by Klenow fill-in.
This dsDNA template along with the vector pNFκB-Luc were then cut with both Mlu I and Bgl II restriction enzymes to allow cloning of the insert into this vector. ligation of the insert and vector occurred, followed by heat-shock transformation into a E. coli strain (JM109) followed by selection of recombinants on LB agar+Ampicillin (100 μg/ml). Mini liquid cultures of each colony generated were established and mini-plasmid preparations done (Qiagen protocols followed), furthered by restriction digests to check the size of the recombinant insert.
The pRSV/hRXRα was prepared via the method of Collingwood T N et al. 1997. J Biol Chem. 272: 13060-5. Transformation was performed as described above, and bulk plasmid preparations were performed from 100 ml overnight cultures. The selectable antibiotic for this vector was 100 μg/ml Ampicilin.
Transfection of cells was performed using Lipofectamine (Gibco Brl) as directed by the manufactures. Transfected cells were incubated for 5 h at 37° C./5% CO2 and serum then added to a final concentration of 2%. Cells were then incubated for a further 24 hours in the presence or absence of ligand. After 24 hours cell lysates were prepared and the level of firefly and renilla luciferase determined using the Dual luciferase assay system (Promega) and a MLX microtitre plate luminometer (Dynex).
Cells were washed with transfection media (DMEM) then transiently transfected with 4 plasmids: a LXR-responsive firefly luciferase reporter gene (pLXRE-luc); mammalian expression plasmids (pcDNA3.1/LXR, and pRSV/hRXRα) containing human LXR and RXRα cDNAs respectively and a control plasmid (pRLTK, Promega) which constitutatively expresses the renilla luciferase gene.
Transfected cells were incubated for 5 h at 37°C./5% CO2 and serum then added to a final concentration of 2%. Cells were then incubated for further 24 hours in the presence or absence of ligand. After 24 hours cell lysates were prepared and the level of firefly and renilla luciferase determined using the Dual luciferase assay system (Promega) and a MLX microtitre plate luminometer (Dynex). The level of firefly luciferase (normalised against the renilla luciferase control) provides a measure of reporter gene activity. This in turn reflects the level of LXR activation
The level of firefly luciferase (normalised against the renilla luciferase control) provides a measure of reporter gene activity which in turn reflects the level of LXRα activation.

A further assay deals with filaggrin. Description: RNA expression analysis of filaggrin in human epidermal cultures (Integriderm array). The class given is cell-based. As to the method:
Commercially available human epidermal cultures were obtained from Skin Ethic™. The cultures were incubated in DMEM supplemented with guggul sterone (conctri) or vehicle alone (X % ethanol) for X days. Medium was replaced every day.
RNA was then extracted from cultures using the Qaigen RNEasy™ minikit according to manufacturers' instructions. The RNA was than DNAse treated and quantified by measuring OD at 260 & 280 nm with a spectrophotometer.
The level of gene expression was then determined using the Integridenm array from Research Genetics. RNA expression in guggul sterone treated cultures was compared to that in cultures treated with vehicle alone according to manufacturers' instructions broadly detailed below.
To prehybridise, each membrane was placed in a seperate roller bottle with the DNA spotted side facing inwards 5.0 ml MicroHyb (Research Genetics #HYB125.GF) was added to each bottle as well as the blocking agents;
20 ul mastermix was added to each tube containing RNA and oligo dT, and the reaction incubated at […] 42° C. for 90 mins. Bio-Spin 6 columns (Bio-Rad #732-6002) were then used to remove unincorporated nucleotides according to the manufacturer's instructions.
The cDNA was denatured by heating to 99° C. for 3 mins and chilled on ice for 2 mins. Hybridisation was carried out at 42° C. for 16-20 hrs in a rotating oven.
Membranes were washed 4× with ˜30 ml wash 1 solution (2× SSC, 1% SDS) at 50° C. for 20 mins/wash in rotating oven. This was followed by 2 further washes in ˜30 ml wash 2 solution (0.5× SSC, 1% SDS) at 50° C. for 15 mins/wash in a rotating oven.
Images of the membranes were obtained using a phosphorimager (Molecular Dynamics) using a pixel size of 100 u during the scanning. Images were converted to “TIF” files to allow analysis using Pathways™2.01 software (Research Genetics) and spot intensities compared to indicate changes in RNA expression. Each array contains 3 separate spots of filaggrin DNA and the average of all 3 spot intensities was calculated for each array. […]

As to `CC(C)CC[C@@H](O)[C@@H](C)[C@H]1CC[C@H]2[C@@H]3CC=C4C[C@@H](O)CC[C@]4(C)[C@H]3CC[C@]12C` [22R-hydroxycholesterol, reference compound], the “Reporter Gene Activity Foloinduction relative to vertical Mean” value amounted to 4.8 on human LXR (32 μM, positive control in desmosterol experiment); 6 at human LXR (35 μM, positive control in cis-guggal sterone experiment); 6.59 on human LXR (50 μM, positive control in cis-guggal sterone experiment).
On to `C/C=C1\C(=O)C[C@H]2[C@@H]3CCC4=CC(=O)CC[C@]4(C)[C@H]3CC[C@]12C` [Cis-guggal Sterone], for which the “Reporter Gene Activity Foloinduction relative to vertical Mean” value on human LXR (16 μM, cos-7 cells, 24 hours with ligand, firefly luciferase normalised against renilla) amounted to 3.9; at human LXR (32 μM, cos-7 cells, 24 hours with ligand, firefly luciferase normalised against renilla), 8; on human LXR (64 μM, cos-7 cells, 24 hours with ligand, firefly luciferase normalised against renilla), 17.3. Moreover, the “Spot intensity (filaggrin)” value in the assay on filaggrin (human epidermal cultures, average of 3 filaggrin spots, normalised against average intensity of all spots) came to 2885. Further, the “Changes in the expression relative to vehicle (filaggrin)” value in the assay on filaggrin (human epidermal cultures, relative to vehicle) is 1.54 (+/−0.17). Further, the “filaggrin mRNA levels (in words)” value with filaggrin (treatment of epidermal cultures) is listed as “elevation of filaggrin mRNA levels”.
Regarding `CC(C)=CCC[C@@H](C)[C@H]1CC[C@H]2[C@@H]3CC=C4C[C@@H](O)CC[C@]4(C)[C@H]3CC[C@]12C` [Desmosterol, cholesta-5,24-dien-3β-ol], on human LXR (26 μM, cos-7 cells, 24 hours with ligand, firefly luciferase normalised against renilla), the “Reporter Gene Activity Foloinduction relative to vertical Mean” value turned out to be 9.27.
